Common to all, as to assay type: functional
For test [1], the system named is Phalaris minor. Briefly: Post-emergence herbicidal activity against isoproturon-resistant Phalaris minor infested wheat field assessed as reduction in weed dry weight at 280 g/ha applied on 1 after sowing through sprayer measured 120 days after sowing relative to control. More on the design: scale not given: the % may be the effect or the level left.
Test [2] deals with Melilotus albus. Nature of the test: Herbicidal activity against Melilotus albus infested wheat field assessed as weed dry weight at 120 g/ha applied at 32 to 35 days after sowing through sprayer measured 100 days after sowing (reference value: 313.7 g/m2).
Test [3] deals with Phalaris minor. Nature of the test: Herbicidal activity against isoproturon-resistant Phalaris minor infested wheat field assessed as weed dry weight at 120 g/ha applied at 32 to 35 days after sowing through sprayer measured 100 days after sowing (reference value: 313.7 g/m2).
The subject of test [4] is Medicago polymorpha. Nature of the test: Herbicidal activity against Medicago polymorpha infested wheat field assessed as weed dry weight at 120 g/ha applied at 32 to 35 days after sowing through sprayer measured 100 days after sowing (reference value: 313.7 g/m2).
Test [5] deals with Lepidium didymum. Briefly: Herbicidal activity against Lepidium didymum infested wheat field assessed as weed dry weight at 120 g/ha applied at 32 to 35 days after sowing through sprayer measured 100 days after sowing (reference value: 313.7 g/m2).
Test [6] relates to Phalaris minor. Briefly: Herbicidal activity against isoproturon-resistant Phalaris minor infested wheat field assessed as wheat yield at 120 g/ha applied at 32 to 35 days after sowing through sprayer (reference value: 3.41 t/ha).
In test [7] the test system is Medicago polymorpha. Briefly: Herbicidal activity against Medicago polymorpha infested wheat field assessed as weed dry weight at 1000 g/ha applied at 32 to 35 days after sowing through sprayer measured 100 days after sowing (reference value: 313.7 g/m2).
Test [8] has as its system Phalaris minor. Nature of the test: Post-emergence herbicidal activity against isoproturon-resistant Phalaris minor infested wheat field assessed as reduction in weed dry weight at 1000 g/ha applied on 1 after sowing through sprayer measured 120 days after sowing relative to control. Further details: scale not given: the % may be the effect or the level left.
Test [9] deals with Phalaris minor. Briefly: Herbicidal activity against isoproturon-resistant Phalaris minor infested wheat field assessed as wheat yield at 1000 g/ha applied at 32 to 35 days after sowing through sprayer (reference value: 3.41 t/ha).
Test [10] concerns Melilotus albus. Nature of the test: Herbicidal activity against Melilotus albus infested wheat field assessed as weed dry weight at 1000 g/ha applied at 32 to 35 days after sowing through sprayer measured 100 days after sowing (reference value: 313.7 g/m2).
The test system of test [11] is Phalaris minor. Briefly: Herbicidal activity against isoproturon-resistant Phalaris minor infested wheat field assessed as weed dry weight at 1000 g/ha applied at 35 days after sowing through sprayer measured 95 days after sowing (reference value: 213.0 g/m2).
The subject of test [12] is Phalaris minor. Nature of the test: Herbicidal activity against isoproturon-resistant Phalaris minor infested wheat field assessed as weed dry weight at 1000 g/ha applied at 32 to 35 days after sowing through sprayer measured 100 days after sowing (reference value: 313.7 g/m2).
For test [13], the system named is Phalaris minor. Briefly: Herbicidal activity against isoproturon-resistant Phalaris minor infested wheat field assessed as wheat yield at 1000 g/ha applied at 35 days after sowing through sprayer measured 95 days after sowing (reference value: 3.05 t/ha).
The test system of test [14] is Lepidium didymum. Briefly: Herbicidal activity against Lepidium didymum infested wheat field assessed as weed dry weight at 1000 g/ha applied at 32 to 35 days after sowing through sprayer measured 100 days after sowing (reference value: 313.7 g/m2).
In test [15] the test system is Phalaris minor. Briefly: Post-emergence herbicidal activity against isoproturon-resistant Phalaris minor infested wheat field assessed as reduction in weed dry weight at 25 g/ha applied on 1 after sowing through sprayer measured 120 days after sowing relative to control. Further details: scale not given: the % may be the effect or the level left.
In test [16] the test system is Phalaris minor. Briefly: Herbicidal activity against isoproturon-resistant Phalaris minor infested wheat field assessed as wheat yield at 120 g/ha applied at 32 to 35 days after sowing through sprayer in presence of surfactant MON 0818 (reference value: 3.41 t/ha).
Test [17] concerns Melilotus albus. Nature of the test: Herbicidal activity against Melilotus albus infested wheat field assessed as weed dry weight at 120 g/ha applied at 32 to 35 days after sowing through sprayer in presence of surfactant MON 0818 measured 100 days after sowing (reference value: 313.7 g/m2).
In test [18] the test system is Phalaris minor. Nature of the test: Herbicidal activity against isoproturon-resistant Phalaris minor infested wheat field assessed as weed dry weight at 120 g/ha applied at 32 to 35 days after sowing through sprayer in presence of surfactant MON 0818 measured 100 days after sowing (reference value: 313.7 g/m2).
The test system of test [19] is Medicago polymorpha. Nature of the test: Herbicidal activity against Medicago polymorpha infested wheat field assessed as weed dry weight at 120 g/ha applied at 32 to 35 days after sowing through sprayer in presence of surfactant MON 0818 measured 100 days after sowing (reference value: 313.7 g/m2).
The subject of test [20] is Lepidium didymum. Briefly: Herbicidal activity against Lepidium didymum infested wheat field assessed as weed dry weight at 120 g/ha applied at 32 to 35 days after sowing through sprayer in presence of surfactant MON 0818 measured 100 days after sowing (reference value: 313.7 g/m2).
The subject of test [21] is Phalaris minor. Nature of the test: Herbicidal activity against isoproturon-resistant Phalaris minor infested wheat field assessed as weed dry weight at 35 g/ha applied at 35 days after sowing through sprayer in presence of 0.5 % surfactant A 12127 measured 95 days after sowing (reference value: 213.0 g/m2).
The subject of test [22] is Phalaris minor. Briefly: Herbicidal activity against isoproturon-resistant Phalaris minor infested wheat field assessed as weed dry weight at 30 g/ha applied at 35 days after sowing through sprayer in presence of 0.5 % surfactant A 12127 measured 95 days after sowing (reference value: 213.0 g/m2).
The test system of test [23] is Phalaris minor. Nature of the test: Herbicidal activity against isoproturon-resistant Phalaris minor infested wheat field assessed as wheat yield at 30 g/ha applied at 35 days after sowing through sprayer in presence of 0.5 % surfactant A 12127 measured 95 days after sowing (reference value: 3.05 t/ha).
In test [24] the test system is Phalaris minor. Nature of the test: Herbicidal activity against isoproturon-resistant Phalaris minor infested wheat field assessed as wheat yield at 35 g/ha applied at 35 days after sowing through sprayer in presence of 0.5 % surfactant A 12127 measured 95 days after sowing (reference value: 3.05 t/ha).
For test [25], the system named is Phalaris minor. Briefly: Herbicidal activity against isoproturon-resistant Phalaris minor infested wheat field assessed as wheat yield at 60 g/ha applied at 35 days after sowing through sprayer measured 95 days after sowing (reference value: 3.05 t/ha).
The test system of test [26] is Phalaris minor. Nature of the test: Herbicidal activity against isoproturon-resistant Phalaris minor infested wheat field assessed as wheat yield at 60 g/ha applied at 32 to 35 days after sowing through sprayer (reference value: 3.41 t/ha).
The subject of test [27] is Lepidium didymum. Briefly: Herbicidal activity against Lepidium didymum infested wheat field assessed as weed dry weight at 60 g/ha applied at 32 to 35 days after sowing through sprayer measured 100 days after sowing (reference value: 313.7 g/m2).
For test [28], the system named is Medicago polymorpha. Briefly: Herbicidal activity against Medicago polymorpha infested wheat field assessed as weed dry weight at 60 g/ha applied at 32 to 35 days after sowing through sprayer measured 100 days after sowing (reference value: 313.7 g/m2).
Test [29] deals with Melilotus albus. Briefly: Herbicidal activity against Melilotus albus infested wheat field assessed as weed dry weight at 60 g/ha applied at 32 to 35 days after sowing through sprayer measured 100 days after sowing (reference value: 313.7 g/m2).
The test system of test [30] is Phalaris minor. Nature of the test: Herbicidal activity against isoproturon-resistant Phalaris minor infested wheat field assessed as weed dry weight at 60 g/ha applied at 32 to 35 days after sowing through sprayer measured 100 days after sowing (reference value: 313.7 g/m2).
For test [31], the system named is Phalaris minor. Nature of the test: Herbicidal activity against isoproturon-resistant Phalaris minor infested wheat field assessed as weed dry weight at 60 g/ha applied at 35 days after sowing through sprayer measured 95 days after sowing (reference value: 213.0 g/m2).
Test [32] concerns Phalaris minor. Nature of the test: Pre-emergence herbicidal activity against isoproturon-resistant Phalaris minor infested wheat field assessed as reduction in weed dry weight at 1250 g/ha applied on 1 after sowing through sprayer measured 120 days after sowing relative to control. Further details: scale not given: the % may be the effect or the level left.

The structures appear in SMILES notation.

Drawing on ChEMBL document CHEMBL3045527, “Herbicides for control of isoproturon-resistant Littleseed Canarygrass (Phalaris minor) in wheat” (2008), this text covers Activity and Crop_yield for seven molecules.

For `CSc1nnc(C(C)(C)C)c(=O)n1N` [METRIBUZIN], the Activity in test [1] stood at 94.7%.
In the case of `C[C@@H](Oc1ccc(Oc2nc3ccc(Cl)cc3o2)cc1)C(=O)O` [FENOXAPROP-P], the Activity in test [2] was 25.2 g/m2; in test [3], 5.9 g/m2; in [4], 25.2 g/m2; in test [5], 25.2 g/m2. Also, the Crop_yield in [6] is 5.96 tons/ha.
For `CC(C)c1ccc(NC(=O)N(C)C)cc1` [ISOPROTURON], the Activity amounted to 3 g/m2 in test [7]; 26.2% in [8]; 3 g/m2 in test [10]; 179.2 g/m2 in test [11]; 242 g/m2 in test [12]; 3 g/m2 in test [14]. For the same molecule, the results for the Crop_yield in test [9] and in test [13] were 3.99 tons/ha and 3.61 tons/ha, respectively.
`CCS(=O)(=O)c1nc2ccccn2c1S(=O)(=O)NC(=O)Nc1nc(OC)cc(OC)n1` [SULFOSULFURON]: the Activity in test [15] is reported as 93.8%; in [17] it was 1.8 g/m2; in test [18] it was 0.3 g/m2; in test [19], 1.8 g/m2; in test [20], 1.8 g/m2. Also, the Crop_yield in test [16] was 6.2 tons/ha.
In the case of `CCc1cc(C)cc(CC)c1-c1c(OC(=O)C(C)(C)C)n2n(c1=O)CCOCC2` [PINOXADEN], the Activity is 0.3 g/m2 in test [21] and 2.3 g/m2 in test [22]. Besides, the Crop_yield in [23] was determined as 5.44 tons/ha; in test [24], 5.38 tons/ha.
Turning to `C[C@@H](Oc1ccc(Oc2ncc(Cl)cc2F)cc1)C(=O)O` [CLODINAFOP], the Crop_yield in [25] came to 5.42 tons/ha; in test [26], 6.01 tons/ha. Besides, the Activity was determined as 38.3 g/m2 in test [27]; 38.3 g/m2 in test [28]; 38.3 g/m2 in [29]; 0.6 g/m2 in test [30]; 0.6 g/m2 in test [31].
Turning to `CCC(CC)Nc1c([N+](=O)[O-])cc(C)c(C)c1[N+](=O)[O-]` [PENDIMETHALIN], the Activity in test [32] amounted to 88.5%.
